The source of these data is ChEMBL document CHEMBL5634129, “Design, synthesis, and structure-activity relationships of a novel class of quinazoline derivatives as coronavirus inhibitors” (Eur J Med Chem, 2023).

A short description of data set [1]: Cytotoxicity in human NCI-H460 cells infected with HCoV-OC43 treated for 72 hrs by CPE inhibition assay. The data set is classed as toxicity, cell-based. As to conditions: read-out: TC50.
The test system of data set [2] is Human coronavirus OC43. As to the kind of experiment: Antiviral activity against HCoV-OC43 infected in human H460 cells assessed as decrease in viral nucleocapsid protein level at 10 uM by Hoechst 33342 staining based analysis relative to control. The data set is classed as functional, NCI-H460. Also on record: scale not given: the % may be the effect or the level left.

In data set [3] the test system is Human coronavirus OC43. As to the kind of experiment: Antiviral activity against HCoV-OC43 infected in human NCI-H460 cells treated for 72 hrs by CPE inhibition assay. The data set is classed as functional, organism-based. Conditions: Betacoronavirus 1, NCI-H460, 72 h.
A short description of data set [4]: Selectivity index, ratio of TC50 for human NCI-H460 cells infected with HCoV-OC43 to EC50 for HCoV-OC43 infected in human NCI-H460 cells. The data set is classed as toxicity, cell-based. Conditions: read-out: Selectivity Index.
Data set [5] deals with Human coronavirus OC43. As to the kind of experiment: Antiviral activity against HCoV-OC43 infected in human H460 cells assessed as decrease in viral nucleocapsid protein level by Hoechst 33342 staining based analysis. The data set is classed as functional, organism-based. Conditions: NCI-H460, dose 0.1-10 µM.
The subject of data set [6] is Human coronavirus OC43. In words: Antiviral activity against HCoV-OC43 infected in human H460 cells assessed as decrease in viral nucleocapsid protein mRNA level by qRT-PCR analysis. The data set is classed as functional, organism-based. Conditions: NCI-H460, dose 0.1-10 µM. For orientation: Quantitative PCR measures a nucleic acid by following its amplification.
In data set [7] the test system is Human coronavirus OC43. In words: Antiviral activity against HCoV-OC43 infected in human H460 cells assessed as viral inhibition at early stage at 10 uM measured upto 12 hrs by Hoechst 33342 staining based analysis. The data set is classed as functional, organism-based. As to conditions: NCI-H460.
The test system of data set [8] is Human coronavirus OC43. In words: Antiviral activity against HCoV-OC43 infected in human H460 cells assessed as viral inhibition at early stage at 500 nM measured upto 12 hrs by Hoechst 33342 staining based analysis. Conditions: NCI-H460. The data set is classed as functional, organism-based.
In data set [9] the test system is Human coronavirus OC43. As to the kind of experiment: Antiviral activity against HCoV-OC43 infected in human H460 cells assessed as decrease in viral nucleocapsid protein level at 2 uM by Hoechst 33342 staining based analysis. Conditions: NCI-H460. The data set is classed as functional, organism-based.

SMILES strings stand for the structures. Active and inactive are the calls of the source. The calls are words filed in the database; no cut-off is given here.

What is called EC50 is the concentration giving half of the maximal effect.

As to `CCOc1ccc2nc(NCCOC)nc(Nc3cc(C(F)(F)F)cc(C(F)(F)F)c3)c2c1`, the CC50 at 72 h in [1] was 5.77 µM. The Activity in [2] was 100%; in [5], “Dose-Dependent Effect”; in data set [6] it was “Dose-Dependent Effect”. Also, in [3], the EC50 stood at 0.1 µM. Further, the selectivity ratio in [4] is 57.7.

With `CCOc1ccc2nc(NCCN3CCOCC3)nc(Nc3cc(C(F)(F)F)cc(C(F)(F)F)c3)c2c1`, the CC50 at 72 h in data set [1] was 5.77 µM. Also, the Activity in [2] was 100%; in data set [5], “Dose-Dependent Effect”; in data set [6] it was “Dose-Dependent Effect”. Further, the EC50 in data set [3] worked out at 0.12 µM. Also, the selectivity ratio in data set [4] came to 48.1.

`CCOc1ccc2nc(NCC3CCCO3)nc(Nc3cc(C(F)(F)F)cc(C(F)(F)F)c3)c2c1` (configuration not stated): the CC50 at 72 h in data set [1] amounted to 96.2 µM. Further, the Activity in data set [2] was 100%; in data set [5] it was “Dose-Dependent Effect”; in data set [6], “Dose-Dependent Effect”. In data set [3], this compound came in with an EC50 of 0.09 µM. In addition, the inhibition entry in [7] was “Active”. In addition, the selectivity ratio in data set [4] worked out at 1070.

For the compound `COc1ccc2ncnc(Nc3ccc(F)c(C(F)(F)F)c3)c2c1`, the CC50 at 72 h in data set [1] is 26.7 µM. The EC50 in data set [3] is 1.43 µM. Further, the selectivity ratio in [4] is 18.7.

On to `O=[N+]([O-])c1ccc2ncnc(Nc3cc(C(F)(F)F)cc(C(F)(F)F)c3)c2c1`, for which the CC50 at 72 h in data set [1] stood at 3.56 µM. Moreover, a half-maximal response in [3] (EC50) required 0.29 µM. Moreover, the selectivity ratio in data set [4] came to 12.3.

`CCCOc1ccc2ncnc(Nc3cc(C(F)(F)F)cc(C(F)(F)F)c3)c2c1`: in data set [1], the CC50 at 72 h amounted to 388 µM. Besides, in data set [3], the response was half-maximal at 0.37 µM (EC50). For the same compound, the selectivity ratio in data set [4] was 1050.

Turning to `CCOc1ccc2ncnc(Nc3cc(C(F)(F)F)cc(C(F)(F)F)c3)c2c1`, the CC50 at 72 h in [1] was 219 µM. Further, the EC50 in data set [3] was 0.69 µM. Besides, the selectivity ratio in data set [4] came to 318.

As to `NC(=O)c1ncn([C@@H]2O[C@H](CO)[C@@H](O)[C@H]2O)n1` [RIBAVIRIN], the CC50 at 72 h in data set [1] amounted to 409 µM. This compound gave an EC50 in data set [3] of 78.8 µM. Further, in [4], the selectivity ratio is 5.2.

For the compound `Nc1ccc2ncnc(Nc3cc(C(F)(F)F)cc(C(F)(F)F)c3)c2c1`, in [1], the CC50 at 72 h turned out to be 10.7 µM. The compound further returned a 50% effective concentration (EC50) in [3] of 0.48 µM. Besides, the selectivity ratio in data set [4] came to 22.3.

Take `CC(C)Oc1ccc2ncnc(Nc3cc(C(F)(F)F)cc(C(F)(F)F)c3)c2c1`: in [1], the CC50 at 72 h was determined as 388 µM. Besides, the EC50 in data set [3] was determined as 43.1 µM. Further, the selectivity ratio in [4] turned out to be 9.

`COc1ccc2ncnc(Nc3cc(Cl)cc(C#N)c3)c2c1`: the CC50 at 72 h in data set [1] was found to be 240 µM. Further, a half-maximal response in data set [3] (EC50) required 9.98 µM. Moreover, in data set [4], the selectivity ratio came out at 24.1.

For the compound `CCOc1ccc2nc(NCc3cccs3)nc(Nc3cc(C(F)(F)F)cc(C(F)(F)F)c3)c2c1`, in data set [1], the CC50 at 72 h was 10.7 µM. Moreover, in data set [3], the EC50 turned out to be 2.97 µM. Moreover, the selectivity ratio in [4] is 3.6.

As to `COc1ccc2ncnc(Nc3cc(F)cc(C#N)c3)c2c1`, the CC50 at 72 h in [1] worked out at 388 µM. In addition, in [3], the response was half-maximal at 23.9 µM (EC50). Besides, the selectivity ratio in data set [4] amounted to 16.3.

For `CCC(CC)COC(=O)[C@H](C)N[P@](=O)(OC[C@H]1O[C@@](C#N)(c2ccc3c(N)ncnn23)[C@H](O)[C@@H]1O)Oc1ccccc1` [REMDESIVIR], the CC50 at 72 h in data set [1] was above 20 µM. In data set [3], this compound registered an EC50 of 0.14 µM. Also, the selectivity ratio in data set [4] was above 143. The inhibition entry in data set [8] was “Active”. Besides, the outcome in [9] was Active.

For `COc1ccc2ncnc(Nc3cc(Cl)cc(C(F)(F)F)c3)c2c1`, the CC50 at 72 h in data set [1] was found to be 129 µM. In [3], this compound displayed an EC50 of 1.43 µM. The selectivity ratio in data set [4] came out at 90.4.

Take `CCOc1ccc2nc(NC(C)C)nc(Nc3cc(C(F)(F)F)cc(C(F)(F)F)c3)c2c1`: the CC50 at 72 h in data set [1] is 8.9 µM. Besides, the EC50 in [3] is 1.43 µM. Moreover, the selectivity ratio in [4] worked out at 6.2.

`COc1ccc2ncnc(Nc3cc(F)cc(OC(F)(F)F)c3)c2c1`: in data set [1], the CC50 at 72 h was 289 µM. The EC50 in data set [3] was determined as 9.98 µM. Besides, in data set [4], the selectivity ratio came to 28.9.

In the case of `COc1cc2c(Nc3cc(C(F)(F)F)cc(C(F)(F)F)c3)ncnc2cn1`, the CC50 at 72 h in [1] turned out to be 6.93 µM. The same compound had an EC50 in data set [3] of 0.28 µM. For the same compound, in data set [4], the selectivity ratio came out at 24.8.

For the compound `COC(=O)c1cc(C#N)cc(Nc2ncnc3ccc(OC)cc23)c1`, in data set [1], the CC50 at 72 h is above 500 µM. The compound also showed an EC50 in data set [3] of 2.65 µM. Also, in [4], the selectivity ratio was above 189.

For `COc1ccc2ncnc(Nc3cc(F)cc(F)c3)c2c1`, the CC50 at 72 h in data set [1] turned out to be 388 µM. In data set [3], this compound yielded an EC50 of 23.9 µM. For the same compound, in data set [4], the selectivity ratio is 16.3.

Take `COc1ccc2ncnc(Nc3ccc(F)c(Cl)c3)c2c1`: the CC50 at 72 h in data set [1] stood at 12.8 µM. The same compound gave an EC50 in data set [3] of 3.56 µM. In addition, the selectivity ratio in data set [4] was 3.6.

Consider `CCOc1ccc2nc(N3CCC(F)(F)CC3)nc(Nc3cc(C(F)(F)F)cc(C(F)(F)F)c3)c2c1`, for which the CC50 at 72 h in data set [1] was found to be 12.8 µM. This compound also registered an EC50 in data set [3] of 6.17 µM. Also, the selectivity ratio in data set [4] came out at 2.1.

As for `CCOc1ccc2nc(N3CCN(C)CC3)nc(Nc3cc(C(F)(F)F)cc(C(F)(F)F)c3)c2c1`, the CC50 at 72 h in data set [1] came to 10.7 µM. The EC50 in data set [3] is 0.48 µM. Also, in data set [4], the selectivity ratio stood at 22.3.

For the compound `FC(F)(F)c1cc(Nc2ncnc3ncccc23)cc(C(F)(F)F)c1`, the CC50 at 72 h in data set [1] came out at 32.1 µM. The same compound came in with an EC50 in data set [3] of 5.14 µM. The selectivity ratio in [4] came to 6.2.

On to `CCOc1ccc2nc(NC(Cc3ccccc3)C(=O)OC(C)(C)C)nc(Nc3cc(C(F)(F)F)cc(C(F)(F)F)c3)c2c1` (configuration not stated), for which, in [1], the CC50 at 72 h stood at 38.5 µM. In addition, in data set [3], the EC50 stood at 18.5 µM. Besides, the selectivity ratio in data set [4] worked out at 2.1.
